Measurements: patent US20030138432A1, “Selective cellular targeting: multifunctional delivery vehicles, multifunctional prodrugs, use as antineoplastic drugs” (Drug Innovation & Design, Inc., priority 1999, published 2003)
Like-named read-outs stand apart in the source and are kept apart here.

What was measured:
PKA = PKA (Homo sapiens, UniProt P17612); conditions: cited from earlier work
Protein Kinase C (PKC) = conditions: cited from earlier work
[1] = test system: PSMA positive human prostate tumor cells; test: In vitro growth of PSMA positive prostate tumor cells with a PSMA inhibitor; type: cell-based; conditions: in the presence of high concentrations of the inhibitor
PSMA = target: T1, PSMA (Homo sapiens, UniProt Q04609); test: Inhibition of PSMA, radiolabelled N-acetylaspartylglutamate as substrate, generation of glutamic acid monitored; type: biochemical
T1 construct: PSMA was prepared from LNCaP prostatic carcinoma cells as described by Pinto J. T. et al; endogenous in cells; host or cells: LNCaP prostatic carcinoma cells
T1 sequence (Q04609 whole entry): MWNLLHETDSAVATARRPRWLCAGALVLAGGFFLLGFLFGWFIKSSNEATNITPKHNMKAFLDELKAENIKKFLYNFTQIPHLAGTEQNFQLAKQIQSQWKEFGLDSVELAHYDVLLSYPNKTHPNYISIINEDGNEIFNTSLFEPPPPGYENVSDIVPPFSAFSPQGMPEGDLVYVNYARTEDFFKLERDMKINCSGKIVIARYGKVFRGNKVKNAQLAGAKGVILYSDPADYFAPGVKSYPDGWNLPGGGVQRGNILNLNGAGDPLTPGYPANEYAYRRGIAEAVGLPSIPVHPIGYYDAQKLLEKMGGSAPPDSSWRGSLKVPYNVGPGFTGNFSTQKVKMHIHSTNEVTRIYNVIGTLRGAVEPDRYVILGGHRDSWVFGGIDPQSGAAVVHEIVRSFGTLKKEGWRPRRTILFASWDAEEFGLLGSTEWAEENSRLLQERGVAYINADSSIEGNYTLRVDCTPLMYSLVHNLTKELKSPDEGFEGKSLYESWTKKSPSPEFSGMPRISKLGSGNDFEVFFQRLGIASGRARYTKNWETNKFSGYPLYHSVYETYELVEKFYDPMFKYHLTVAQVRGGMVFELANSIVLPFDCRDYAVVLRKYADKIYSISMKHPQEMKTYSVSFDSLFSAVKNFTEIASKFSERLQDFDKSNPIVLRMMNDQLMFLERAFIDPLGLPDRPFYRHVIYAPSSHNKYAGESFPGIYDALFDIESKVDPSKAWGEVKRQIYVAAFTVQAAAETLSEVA
Description: PSMA was prepared from LNCaP prostatic carcinoma cells as described by Pinto J. T. et al., Clinical Cancer Res. Vol.2 p.1445 (1996). The enzyme was assayed employing radiolabelled N-acetylaspartylglutamate as a substrate and monitoring the generation of glutamic acid in the presence of varying concentrations of Compound 1 or 1.1. […] Compound 1.1 inhibited the enzyme 50% at 3.4 nM.

[2] = read-out: IC50 (cytotoxin); cited from earlier work
[3] = target: dihydroorotic acid dehydrogenase (Homo sapiens, UniProt Q02127); conditions: cited from earlier work
Chain of dihydroorotic acid dehydrogenase (Q02127 whole entry): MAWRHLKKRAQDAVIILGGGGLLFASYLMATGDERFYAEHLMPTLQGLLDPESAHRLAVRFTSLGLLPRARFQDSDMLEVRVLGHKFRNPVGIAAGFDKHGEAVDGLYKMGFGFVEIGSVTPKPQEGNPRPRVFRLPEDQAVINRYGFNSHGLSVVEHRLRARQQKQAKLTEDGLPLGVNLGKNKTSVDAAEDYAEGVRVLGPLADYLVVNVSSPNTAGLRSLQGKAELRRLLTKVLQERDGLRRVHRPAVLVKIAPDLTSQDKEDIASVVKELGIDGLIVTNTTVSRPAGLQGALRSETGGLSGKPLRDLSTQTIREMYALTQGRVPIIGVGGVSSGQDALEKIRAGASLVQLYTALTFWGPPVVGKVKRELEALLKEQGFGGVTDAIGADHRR

IMP dehydrogenase = conditions: cited from earlier work

10″-deoxybalanol
Ki (PKA): 4 nM
Ki (Protein Kinase C (PKC)): 640 nM

O=C(O)CCC(CP(=O)(O)O)C(=O)O (stereo not shown) [2-(phosphonomethyl)-pentanedioic acid]
growth of tumor cells in vitro [1]: readily grow

O=C(O)CCC(CP(=O)(O)CCC(=O)NC(CCCCNC(=S)Nc1ccc(-c2c3ccc(=O)cc-3oc3cc(O)ccc23)c(C(=O)O)c1)C(=O)NCCc1ccc(O)cc1)C(=O)O (stereo not shown) [Compound 1.1]
IC50 (PSMA): 3.4 nM
Ki (PSMA): 3.4 nM

O=C(O)CCC(OP(=O)(O)OCCCOCCNC(=O)CCCCCNS(=O)(=O)c1ccc(C2=c3cc4c5c(c3Oc3c2cc2c6c3CCCN6CCC2)CCC[N+]=5CCC4)c(S(=O)(=O)[O-])c1)C(=O)O (stereo not shown) [Compound 1]
IC50 (PSMA; PSMA prepared from LNCaP prostatic carcinoma cells, radiolabelled N-acetylaspartylglutamate substrate, read-out: concentration that inhibited the enzyme 50%): 20 nM
Ki (PSMA; PSMA prepared from LNCaP prostatic carcinoma cells, read-out: Ki for inhibition of PSMA): 20 nM

COc1c(C)cc2c(c1O)C1C3Cc4c(OC(C)=O)c(C)c5c(c4C(CN4C(=O)c6ccccc6C4=O)N3C(C#N)C(C2)N1C)OCO5 (stereo not shown) [Phthalascidin]
IC50 [2]: 0.1 to 1 nM

Cc1c(-c2ccc(-c3ccccc3F)cc2)nc2ccc(F)cc2c1C(=O)O [brequinar]
level at which dihydroorotic acid dehydrogenase is inhibited [3]: nonamolar levels

COc1c(C)c2c(c(O)c1C/C=C(\C)CCC(=O)O)C(=O)OC2 [mycophenolic acid]
level at which IMP dehydrogenase is inhibited (IMP dehydrogenase): nanomolar levels
